Where “and” joins values, the source holds several entries; their conditions need not be identical. Equal values may be shown once. Toxic doses and inconclusive results are not listed.
System: P388 leukemia ip, CD2F1 mice, survival T/C
Experiment: NCI In Vivo Anticancer Drug Screen. Data for tumor model P388 Leukemia (intraperitoneal) in CD2F1 (CDF1) mice
Settings: endpoint: median survival time, higher = longer survival
Method in brief: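 Mice carrying the transplanted tumor received test compound or vehicle. Survival was recorded in each group, and the value is the treated-group measurement divided by that of the vehicle-treated control group.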

[1] = dose: 50.0 mg/kg/injection, schedule: Q01DX005 (ip), vehicle: saline with Tween-80
[2] = dose: 100.0 mg/kg/injection, schedule: Q01DX005 (ip), vehicle: saline with Tween-80
[3] = dose: 200.0 mg/kg/injection, schedule: Q01DX005 (ip), vehicle: saline with Tween-80
[4] = dose: 60.0 mg/kg/injection, schedule: Q01DX005 (ip), vehicle: saline with Tween-80
[5] = dose: 120.0 mg/kg/injection, schedule: Q01DX005 (ip), vehicle: saline with Tween-80
[6] = dose: 50.0 mg/kg/injection, schedule: Q04DX003 (ip), vehicle: saline with Tween-80
[7] = dose: 100.0 mg/kg/injection, schedule: Q04DX003 (ip), vehicle: saline with Tween-80
[8] = dose: 200.0 mg/kg/injection, schedule: Q04DX003 (ip), vehicle: saline with Tween-80
[9] = dose: 50.0 mg/kg/injection, schedule: Q01DX005 (ip), vehicle: Klucel (hydroxypropylcellulose) (HPC)
[10] = dose: 100.0 mg/kg/injection, schedule: Q01DX005 (ip), vehicle: Klucel (hydroxypropylcellulose) (HPC)
[11] = dose: 25.0 mg/kg/injection, schedule: Q04DX003 (ip), vehicle: saline with Tween-80
[12] = dose: 50.0 mg/kg/injection, schedule: Q01DX009 (ip), vehicle: Klucel (hydroxypropylcellulose) (HPC)
[13] = dose: 100.0 mg/kg/injection, schedule: Q01DX009 (ip), vehicle: Klucel (hydroxypropylcellulose) (HPC)
[14] = dose: 200.0 mg/kg/injection, schedule: Q01DX009 (ip), vehicle: Klucel (hydroxypropylcellulose) (HPC)
[15] = dose: 50.0 mg/kg/injection, schedule: Q01DX009 (ip), vehicle: saline with Tween-80
[16] = dose: 100.0 mg/kg/injection, schedule: Q01DX009 (ip), vehicle: saline with Tween-80
[17] = dose: 12.5 mg/kg/injection, schedule: Q01DX009 (ip), vehicle: saline with Tween-80

SMILES: CC12CCC/C(=N\NC(N)=S)C1C(=O)NC(=O)C2 (stereo not given)
- T/C [1]: 99 % of control
- T/C [2]: 96 % of control
- T/C [3]: 97 % of control

SMILES: O=CC(NC(=O)N(CCCl)N=O)C(O)C(O)C(O)CO (stereo not given)
- T/C (dose: 0.78 mg/kg/injection, schedule: Q01DX009 (ip), vehicle: saline): 156 % of control
- T/C (dose: 1.5 mg/kg/injection, schedule: Q01DX005 (ip), vehicle: water): 158 % of control
- T/C (dose: 1.5 mg/kg/injection, schedule: Q04DX003 (ip), vehicle: saline): 153 % of control
- T/C (dose: 1.56 mg/kg/injection, schedule: Q01DX009 (ip), vehicle: saline): 195 % of control
- T/C (dose: 3.0 mg/kg/injection, schedule: Q01DX005 (ip), vehicle: saline): 169 % of control
- T/C (dose: 3.0 mg/kg/injection, schedule: Q01DX005 (ip), vehicle: water): 163 % of control and 187 % of control
- T/C (dose: 3.0 mg/kg/injection, schedule: Q04DX003 (ip), vehicle: saline): 174 % of control
- T/C (dose: 3.12 mg/kg/injection, schedule: Q01DX009 (ip), vehicle: saline): 263 % of control
- T/C (dose: 4.32 mg/kg/injection, schedule: Q04DX002 (ip), vehicle: saline): 166 % of control
- T/C (dose: 6.0 mg/kg/injection, schedule: Q01DX001 (ip), vehicle: saline): 157 % of control
- T/C (dose: 6.0 mg/kg/injection, schedule: Q01DX001 (iv), vehicle: saline): 109 % of control
- T/C (dose: 6.0 mg/kg/injection, schedule: Q01DX005 (ip), vehicle: saline): 205 % of control
- T/C (dose: 6.0 mg/kg/injection, schedule: Q01DX005 (ip), vehicle: water): 199 % of control and 264 % of control
- T/C (dose: 6.0 mg/kg/injection, schedule: Q01DX005 (iv), vehicle: saline): 192 % of control
- T/C (dose: 6.0 mg/kg/injection, schedule: Q04DX003 (ip), vehicle: saline): 205 % of control
- T/C (dose: 7.2 mg/kg/injection, schedule: Q04DX002 (ip), vehicle: saline): 169 % of control
- T/C (dose: 12.0 mg/kg/injection, schedule: Q01DX001 (ip), vehicle: saline): 212 % of control
- T/C (dose: 12.0 mg/kg/injection, schedule: Q01DX005 (ip), vehicle: saline): 258 % of control
- T/C (dose: 12.0 mg/kg/injection, schedule: Q01DX005 (ip), vehicle: water): 265 % of control and 91 % of control
- T/C (dose: 12.0 mg/kg/injection, schedule: Q01DX005 (iv), vehicle: saline): 119 % of control
- T/C (dose: 12.0 mg/kg/injection, schedule: Q04DX002 (ip), vehicle: saline): 212 % of control
- T/C (dose: 12.0 mg/kg/injection, schedule: Q04DX003 (ip), vehicle: saline): 285 % of control and 371 % of control and 401 % of control
- T/C (dose: 18.0 mg/kg/injection, schedule: Q04DX003 (ip), vehicle: saline): 153 % of control and 175 % of control
- T/C (dose: 20.0 mg/kg/injection, schedule: Q04DX002 (ip), vehicle: saline): 287 % of control
- T/C (dose: 24.0 mg/kg/injection, schedule: Q01DX001 (ip), vehicle: saline): 277 % of control
- T/C (dose: 24.0 mg/kg/injection, schedule: Q01DX001 (iv), vehicle: saline): 166 % of control
- T/C (dose: 27.0 mg/kg/injection, schedule: Q04DX003 (ip), vehicle: saline): 96 % of control
- T/C (dose: 40.0 mg/kg/injection, schedule: Q04DX003 (ip), vehicle: saline): 74 % of control and 98 % of control

SMILES: CN1CCOC(=O)C(C#N)=C1c1ccccc1
- T/C [4]: 110 % of control
- T/C [5]: 108 % of control
- T/C (dose: 240.0 mg/kg/injection, schedule: Q01DX005 (ip), vehicle: saline with Tween-80): 98 % of control

SMILES: CC(C)(CO)CN1CCCCC1
- T/C [6]: 100 % of control
- T/C [7]: 100 % of control
- T/C [8]: 100 % of control

SMILES: CCCCN(c1ccc(Br)cc1)c1nc(N)nc(N)c1N=O
- T/C (dose: 25.0 mg/kg/injection, schedule: Q01DX005 (ip), vehicle: Klucel (hydroxypropylcellulose) (HPC)): 103 % of control
- T/C [9]: 99 % of control
- T/C [10]: 102 % of control
- T/C (dose: 200.0 mg/kg/injection, schedule: Q01DX005 (ip), vehicle: Klucel (hydroxypropylcellulose) (HPC)): 98 % of control

SMILES: CCc1nnc(NC(=S)NC(=O)OC)s1
- T/C [11]: 100 % of control
- T/C [6]: 105 % of control
- T/C [7]: 105 % of control

SMILES: Cc1ccc(-n2ncc3c(=O)n(-c4cccc(C)c4)c(=O)[nH]c32)cc1
- T/C [12]: 99 % of control
- T/C [13]: 97 % of control
- T/C [14]: 96 % of control

SMILES: COc1ccc(C)cc1N=NC1C(=O)N(C(=O)CC(=O)Nc2ccccc2Cl)N=C1C (stereo not given)
- T/C [9]: 96 % of control
- T/C [10]: 95 % of control

SMILES: COc1cc(CC#N)c(S(=O)O)cc1OC
- T/C [15]: 116 % of control
- T/C [16]: 109 % of control
- T/C (dose: 200.0 mg/kg/injection, schedule: Q01DX009 (ip), vehicle: saline with Tween-80): 114 % of control

SMILES: CN1CC2(c3ccccc3)CN(C)CC(c3ccccc3)(C1)C2=O
- T/C (dose: 6.25 mg/kg/injection, schedule: Q01DX009 (ip), vehicle: saline with Tween-80): 100 % of control
- T/C [17]: 86 % of control

SMILES: C=C1CC2(CC3CCC2(C)C3(C)C)OC1=O (stereo not given)
- T/C (dose: 100.0 mg/kg/injection, schedule: Q01DX001 (ip), vehicle: saline): 98 % of control
- T/C (dose: 200.0 mg/kg/injection, schedule: Q01DX001 (ip), vehicle: saline): 99 % of control
- T/C (dose: 400.0 mg/kg/injection, schedule: Q01DX001 (ip), vehicle: saline): 99 % of control

SMILES: COc1ccc2ccccc2c1Cc1ccc(N(C)C)cc1Cl
- T/C [1]: 92 % of control
- T/C [2]: 95 % of control
- T/C [3]: 90 % of control

SMILES: CN1CCN(CN2C(=O)NC(c3ccccc3)(c3ccccc3)C2=O)CC1
- T/C (dose: 60.0 mg/kg/injection, schedule: Q01DX005 (ip), vehicle: Klucel (hydroxypropylcellulose) (HPC)): 90 % of control
- T/C (dose: 120.0 mg/kg/injection, schedule: Q01DX005 (ip), vehicle: Klucel (hydroxypropylcellulose) (HPC)): 107 % of control
- T/C (dose: 240.0 mg/kg/injection, schedule: Q01DX005 (ip), vehicle: Klucel (hydroxypropylcellulose) (HPC)): 98 % of control

SMILES: c1c[nH]cn1
- T/C (dose: 50.0 mg/kg/injection, schedule: Q01DX009 (ip), vehicle: saline): 97 % of control

SMILES: Nc1c(I)cc(I)cc1C(=O)O
- T/C [12]: 99 % of control and 101 % of control
- T/C [13]: 101 % of control and 114 % of control

SMILES: CCN(CC)C(=O)N1C=CC(C)C=C1
- T/C [4]: 100 % of control
- T/C [5]: 101 % of control

SMILES: O=[n+]1c2ccccc2n([O-])c2cc(Cl)ccc21
- T/C [11]: 112 % of control
- T/C [15]: 150 % of control
- T/C [6]: 112 % of control
- T/C [16]: 154 % of control and 174 % of control
- T/C [7]: 107 % of control
- T/C [8]: 114 % of control
- T/C (dose: 400.0 mg/kg/injection, schedule: Q04DX003 (ip), vehicle: saline with Tween-80): 114 % of control

SMILES: CCCCCCCCCCCCCCCC[N+](C)(C)CCOC(C)=O
- T/C [17]: 109 % of control
- T/C (dose: 12.5 mg/kg/injection, schedule: Q01DX009 (ip), vehicle: saline): 111 % of control
- T/C (dose: 25.0 mg/kg/injection, schedule: Q01DX009 (ip), vehicle: saline with Tween-80): 109 % of control
- T/C (dose: 25.0 mg/kg/injection, schedule: Q01DX009 (ip), vehicle: saline): 100 % of control

SMILES: CC(=O)OCC#CCN1CCCCCC1
- T/C (dose: 50.0 mg/kg/injection, schedule: Q01DX005 (ip), vehicle: saline): 91 % of control
- T/C (dose: 100.0 mg/kg/injection, schedule: Q01DX005 (ip), vehicle: saline): 92 % of control

SMILES: Nn1c(-c2cnns2)n[nH]c1=S
- T/C (dose: 100.0 mg/kg/injection, schedule: Q01DX001 (ip), vehicle: Klucel (hydroxypropylcellulose) (HPC)): 100 % of control
- T/C (dose: 200.0 mg/kg/injection, schedule: Q01DX001 (ip), vehicle: Klucel (hydroxypropylcellulose) (HPC)): 100 % of control
- T/C (dose: 400.0 mg/kg/injection, schedule: Q01DX001 (ip), vehicle: Klucel (hydroxypropylcellulose) (HPC)): 105 % of control

SMILES: NS(=O)(=O)c1ccc(NC(=O)CCCCl)cc1
- T/C [12]: 100 % of control
- T/C [13]: 94 % of control
- T/C [14]: 86 % of control

SMILES: Cc1ccc(S(=O)/C=C/c2ccccc2)cc1 (stereo not given)
- T/C (dose: 50.0 mg/kg/injection, schedule: Q01DX009 (ip), vehicle: other): 103 % of control
- T/C (dose: 100.0 mg/kg/injection, schedule: Q01DX009 (ip), vehicle: other): 97 % of control
- T/C (dose: 200.0 mg/kg/injection, schedule: Q01DX009 (ip), vehicle: other): 101 % of control
